The values below come from patent US20260048051A1, “TREATMENT OF INFLAMMATORY BOWEL DISEASE” (Atomwise Inc., priority 2024, published 2026).

pIC50: −log10 of the molar value.

For one data set, the target named is T1, TYK2-JH2 (Homo sapiens, UniProt P29597).
T1 construct: TYK JH2 enzyme mix (ChemPartner: CP20210818A-BV); purchased ChemPartner CP20210818A-BV
The data set can be described thus: TYK2-JH2 HTRF binding assay (ligand efficiency). The settings on record: calculated from binding-assay IC50 (Equation 1). In a few lines: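 HTRF competition binding: 0.5 nM His-tagged TYK2 JH2 preincubated 10 min at room temperature with compound (final 0.1 to 0.000005 μM), then 35 nM tracer and anti-6HIS Tb cryptate added for 60 min. Buffer 20 mM HEPES pH 7.5, 10 mM MgCl2, 0.01% Triton X-100, 1 mM DTT; TR-FRET Ex340/Em495/520. Ligand efficiency derived from binding IC50.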

Another data set has as its system GM-CSF induced pSTAT5. The data set is described as follows: GM-CSF induced pSTAT5 assay in CellSensor irf1-bla TF-1 cells. It is filed as cell-based. The conditions noted are these: GM-CSF 1 ng/mL; for pIC50: Homo sapiens, read-out: Cellular selectivity (GM-CSF induced pSTAT5). The protocol: The CellSensor irfl-bla TF-1 cell line (LifeTechnologies, K1657) was cultured in RPMI 1640 Medium (Invitrogen 72400-047), 10% Fetal Bovine Serum (Invitrogen, 26400044), 1 mM Sodium pyruvate (Life Technologies, 11360039), 1% MEM NEAA (Life Technologies, 11140-035), 2 ng/ml of human recombinant GM-CSF (Fisher, PHC2015), 1% Penicillin/Streptomycin (Life Technologies, 15140-122) and 5 µg/ml of Blasticidin (ThermoFisher, A1113903).
The cell line was seeded in a T75 flask at 13×10^6 cells/50 mL in starvation medium (Opti-MEM™ I Reduced Serum Medium, no phenol red (Life Technologies, 11058-021), 1 mM Na pyruvate (Life Technologies, 11360039), 1% MEM NEAA (Life Technologies, 11140-035), and 1% Penicillin/Streptomycin (Life Technologies, 15140-122)) for 16 hours at 37° C. under 5% CO2 the day before the assay.
For the assay, CellSensor irfl-bla TF-1 cells were seeded at 30 000 cells/32 μL (starvation medium)/well in a 384-well plate.
Compounds were added on the cells in 4 μL (starvation medium)/well at 10× the final concentration. They were incubated for 30 minutes at 37° C.
Human recombinant carrier-free GM-CSF (ThermoFisher, ref PHC2015) was added to the wells in 4 μL (starvation medium)/well at 10×. The final concentration was 1 ng/mL. Control wells without GM-CSF treatment were added. Plates were incubated for 5 hours at 37° C.
6× LiveBlazer-FRET substrate (Invitrogen, K1085) was added to the wells at 8 μL/well. The substrate was prepared shortly before use by mixing 6 μL of solution A and 60 μL of solution B to 934 μL of solution C. Plates were incubated for 2.5 hours at room temperature in the dark. The plates were read on an Envision (Perkin Elmer) with an excitation at a wavelength of 409 nm and two wavelengths for the emission 520 nm and 450 nm. The ratio between the […] emission was used to calculate the IC50s.
The IC50 for the inhibition of pSTAT5 was calculated with the XLfit software using the 4 Parameter Logistic Model or Sigmoidal Dose-Response Model (model 205).

For a further data set, the system named is IL-6 induced pSTAT3. The data set can be described thus: IL-6 induced pSTAT3 assay in TF-1 cells. It is filed as cell-based. The settings on record: Homo sapiens, read-out: Cellular selectivity (IL-6/pSTAT3). The procedure: The following example describes the IL-6 induced pSTAT3 assay used to determine the cellular selectivity (IL-6/pSTAT3) of the TYK2 inhibitors.
TF-1 (ATCC®, CRL-2003™) cells were cultured in RPMI 1640 Medium, with GlutaMAX™ Supplement, HEPES for Cell Culture (Life Technologies, 72400047), 10% Fetal Bovine Serum (Life Technologies, 26400044), 2 ng/mL human recombinant GM-CSF (Life Technologies, PHC2013), 1 mM Sodium pyruvate (Life Technologies, 11360039), 1% MEM NEAA (Life Technologies, 11140-035), 1% Penicillin/Streptomycin (Life Technologies, 15140-122).
TF-1 (70×10^6) cells were starved overnight in T150 flasks (Opti-MEM™ I Reduced Serum Medium, no phenol red (Life Technologies, 11058-021), 1 mM Na pyruvate (Life Technologies, 11360039), 1% MEM NEAA (Life Technologies, 11140-035), and 1% Penicillin/Streptomycin (Life Technologies, 15140-122)) then seeded into 96-well TPP plates (150 000 cell/well) and incubated with test compounds (Final Concentration [nM]10000-0.05) for 30 minutes at 37° C. […] Stimulation was terminated by addition of lysis buffer (MSD K150SVD) and pSTAT3 detection was measured with Phospho-STAT3 (Tyr705) Kit MSD K150SVD)) according to manufacturer's instruction. Briefly, cell lysates were added to pre-blocked plates, sealed, and shake for 1 hour at room temperature. Plates were then washed and incubated with detection antibody for 1 hour at room temperature. After washing, Read Buffer was added, and plates were read on MSD instrument (Model 1300 MSD Quickplex SQ120).

Data set [1] is described as follows: Mouse plasma pharmacokinetics, PO 5 mg/kg. It is filed as in vivo. The protocol:
The following example describes the methods used to evaluate the pharmacokinetics of TYK2 inhibitors in vivo following dosing of a compound of the invention.
The pharmacokinetics of test compounds were evaluated in either male CD-1 mice or male C57BL/6 mice when administered by oral gavage and IV bolus injection. The animals were allowed free access to food and water before administration. The plasma samples were analyzed by LC-MS/MS and the concentration of test compound at each time point was determined by linear regression. Pharmacokinetic parameters were calculated from the plasma concentrations by non-compartmental modeling using WinNonlin 8.2.
Oral composition. To prepare a pharmaceutical composition for oral delivery, the test articles described herein were dissolved in DMSO and then mixed with necessary volume of PEG400 followed by […] in water or 50% Kolliphor HS 15 in saline to provide the final concentrations of 0.5 mg/mL or 1 mg/mL (Table 8). The resultant mixtures were suitable for oral administration.
The PK parameters measured in mouse plasma after treatment with TYK2 inhibitor compounds via PO (oral administration) at 5 mg/kg are summarized below in Tables 9-11.

Data set [2] in a line: Brain exposure pharmacokinetics in rats. It is filed as in vivo. The conditions noted are these: male Sprague Dawley rats, oral gavage 10 mg/kg. The protocol:
The brain exposure of exemplary compounds, e.g., 1, 2, and 4 were evaluated in male Sprague Dawley rats after oral gavage administration at 10 mg/kg. The formulation was 5% DMSO+10% PEG400 in saline. Rats were fasted overnight with food returned 4 hours post-dose. CSF was collected by direct needle puncture into the cisterna magna.
(§1) For both rat and mouse studies, brain tissue was washed with 3 volumes of saline prior to homogenization. Brain tissue was homogenized with 3 volumes (v/w) of phosphate buffered saline. Plasma, brain homogenate, and CSF samples (rat only) were analyzed by LC-MS/MS and the concentration of test compound at each time point was determined by linear regression.
(§2) Pharmacokinetic parameters were calculated from the plasma, brain, and CSF concentrations by non-compartmental modeling using WinNonlin 8.2.

Data set [3] is described as follows: Brain exposure pharmacokinetics in mice. It is filed as in vivo. The conditions noted are these: male C57BL/6 mice, oral gavage 5 mg/kg. The protocol:
The brain exposure of 18 was evaluated in male C57BL/6 mice after oral gavage administration at 5 mg/kg. The formulation was 10% DMSO+40% PEG400 in saline. Mice were provided free access to food and water without fasting. Terminal sample collection of plasma and brain tissue were collected at […], 0.25, 0.5, 1, 2, and 4 hours post-dose with n=3 at each timepoint.
as §1, §2

T1 sequence (P29597 589-875 limits assumed): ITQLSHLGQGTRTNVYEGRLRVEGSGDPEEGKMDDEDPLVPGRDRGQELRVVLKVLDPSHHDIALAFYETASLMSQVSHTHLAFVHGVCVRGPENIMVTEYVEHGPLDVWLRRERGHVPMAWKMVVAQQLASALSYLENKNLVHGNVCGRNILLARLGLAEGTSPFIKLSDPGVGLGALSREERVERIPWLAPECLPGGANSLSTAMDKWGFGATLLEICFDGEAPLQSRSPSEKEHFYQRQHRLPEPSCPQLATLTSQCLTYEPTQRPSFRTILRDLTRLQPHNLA

Regarding `CS(=O)(=O)c1cccnc1Nc1cc(Nc2ccc3c(n2)CCCC3N2CC3(COC3)C2)ncn1` (stereo in doubt) [Compound 5, (R)—N^4-(5-(2-oxa-6-azaspiro[3.3]heptan-6-yl)-5,6,7,8-tetrahydroquinolin-2-yl)-N^6-(3-(methylsulfonyl)pyridin-2-yl)pyrimidine-4,6-diamine], the “Ligand Efficiency” value on TYK2-JH2 is on record as “†† (††: 0.37-0.39)”. Besides, the pIC50 with GM-CSF induced pSTAT5 is less than 5.00. For the same molecule, the pIC50 in the data set with IL-6 induced pSTAT3 was 5.00 to 5.40. In data set [1], the “Half-life (t1/2)” value is reported as “††† (†††: >1.5)”, the “Maximum plasma concentration (Cmax)” value is “††† (†††: >1500)” and the “Total systemic exposure (AUCinf)” value is on record as “††† (†††: >2000)”.

As to `CC(c1ccc(Nc2cc(Nc3ncccc3S(C)(=O)=O)ncn2)nc1C(F)(F)F)N1CC2(COC2)C1` (stereo in doubt) [Compound 11, (R)—N^4-(5-(1-(2-oxa-6-azaspiro[3.3]heptan-6-yl)ethyl)-6-(trifluoromethyl)pyridin-2-yl)-N^6-(3-(methylsulfonyl)pyridin-2-yl)pyrimidine-4,6-diamine], the “Ligand Efficiency” value on TYK2-JH2 is recorded as “†† (††: 0.37-0.39)”. Moreover, in the data set on GM-CSF induced pSTAT5, the pIC50 was less than 5.00. For the same molecule, the pIC50 with IL-6 induced pSTAT3 is more than 5.40. For the same molecule, in data set [1], the “Half-life (t1/2)” value is “††† (†††: >1.5)”, the “Maximum plasma concentration (Cmax)” value is reported as “†† (††: 800-1500)” and the “Total systemic exposure (AUCinf)” value is recorded as “††† (†††: >2000)”.

For `Cc1nc(Nc2cc(Nc3ncccc3S(C)(=O)=O)ncn2)ccc1[C@H](C)N1CC2(COC2)C1` (stereo in doubt) [Compound 12, N^4-(5-(1-(2-oxa-6-azaspiro[3.3]heptan-6-yl)ethyl)-6-methylpyridin-2-yl)-N^6-(3-(methylsulfonyl)pyridin-2-yl)pyrimidine-4,6-diamine], the “Ligand Efficiency” value on TYK2-JH2 is listed as “††† (†††: >0.39)”. The pIC50 in the data set on GM-CSF induced pSTAT5 is more than 5.40. Further, in the data set with IL-6 induced pSTAT3, the pIC50 is more than 5.40. Moreover, in data set [1], the “Half-life (t1/2)” value was “† (†: <1.0)”, the “Maximum plasma concentration (Cmax)” value was “††† (†††: >1500)” and the “Total systemic exposure (AUCinf)” value is given as “†† (††: 1000-2000)”.

On to `C[C@@H](c1ccc(Nc2cc(Nc3ncccc3S(C)(=O)=O)ncn2)nc1)N(C)C` [Compound 4, (S)—N^4-(5-(1-(dimethylamino)ethyl)pyridin-2-yl)-N^6-(3-(methylsulfonyl)pyridin-2-yl) pyrimidine-4,6-diamine], for which the “Ligand Efficiency” value at TYK2-JH2 is “††† (†††: >0.39)”. In data set [2], the “Brain Kpu, u” value is “††† (††† >0.2 u)”.

`C[C@H](c1ccc(Nc2cc(Nc3ncccc3S(C)(=O)=O)ncn2)nc1)N1CC2(COC2)C1` [Compound 17, (R)—N^4-(5-(1-(2-oxa-6-azaspiro[3.3]heptan-6-yl)ethyl)pyridin-2-yl)-N^6-(3-(methylsulfonyl)pyridin-2-yl)pyrimidine-4,6-diamine]: the “Ligand Efficiency” value on TYK2-JH2 is “†† (††: 0.37-0.39)”. Besides, the “Cellular selectivity (GM-CSF induced pSTAT5)” value with GM-CSF induced pSTAT5 was “††††”. Also, the pIC50 in the data set with IL-6 induced pSTAT3 is less than 5.00.

Regarding `Cc1cccc(Nc2cc(Nc3ncccc3S(C)(=O)=O)ncn2)n1` [Compound 18, N^4-(6-methylpyridin-2-yl)-N^6-(3-(methylsulfonyl)pyridin-2-yl) pyrimidine-4,6-diamine], on TYK2-JH2, the “Ligand Efficiency” value is listed as “††† (†††: >0.39)”. The “Brain Kpu, u” value in data set [3] is “††† (††† >0.2 u)”.
